Here are results for 20 molecules from patent US20250243180A1, “TARGETED PROTEIN DEGRADATION” (Monte Rosa Therapeutics AG, priority 2023, published 2025).

The target in assay [1] is CRBN-DDB1 (Homo sapiens (Human), UniProt Q96SW2). The assay can be described thus: Compound binding to CRBN by HTRF assay. The method in brief:
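HTRF displacement of Cy5-thalidomide probe (100 nM) from His-tagged CRBN-DDB1 (2.5 nM) with anti-His terbium cryptate, in HEPES/NaCl/TCEP/EDTA/Tween20 buffer; 11-point 1:3 dilution series, 30 min at ambient temperature. Signal (665/620 nm) normalized to lenalidomide and DMSO controls; EC50 fitted, Ki by Cheng-Prusoff from geometric mean EC50.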

Assay [2] concerns the target NEK7 (Homo sapiens (Human), UniProt Q8TDX7+Q96SW2). The assay can be described thus: NEK7 NanoBiT degradation assay in Cal51 NEK7 NanoBiT cell line. The format is cell-based. The note with it: Cal51 NEK7 NanoBiT cells, 24 hours; for Dmax: CAL-51. The method in brief: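 Cal51 cells with CRISPR knock-in HiBiT-tagged endogenous NEK7 plus stable LgBiT, in live-cell Endurazine medium, seeded 16 h before dosing. Compounds at final 1 μM to 0.05 nM for 24 h at 37 °C, then luminescence read. Response normalized to plate controls and fitted with a 4-parameter logistic giving EC50.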

Where [3] appears, read: NEK7 degradation, read-out: NanoBiT Dmax.
Setting [4] is: NEK7 degradation, read-out: NanoBiT DC50.

Where two headings read alike, the source gives them in different places.

Sequence of NEK7 (Q8TDX7 whole entry): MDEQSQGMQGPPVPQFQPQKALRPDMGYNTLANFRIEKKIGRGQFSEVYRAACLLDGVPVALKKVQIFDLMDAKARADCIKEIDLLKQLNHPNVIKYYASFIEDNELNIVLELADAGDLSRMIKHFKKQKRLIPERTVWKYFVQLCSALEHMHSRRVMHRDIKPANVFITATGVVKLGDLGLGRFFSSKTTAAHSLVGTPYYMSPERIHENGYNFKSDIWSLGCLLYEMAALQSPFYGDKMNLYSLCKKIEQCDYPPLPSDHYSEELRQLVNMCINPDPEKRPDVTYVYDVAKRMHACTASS
Sequence of NEK7 (Q96SW2 whole entry): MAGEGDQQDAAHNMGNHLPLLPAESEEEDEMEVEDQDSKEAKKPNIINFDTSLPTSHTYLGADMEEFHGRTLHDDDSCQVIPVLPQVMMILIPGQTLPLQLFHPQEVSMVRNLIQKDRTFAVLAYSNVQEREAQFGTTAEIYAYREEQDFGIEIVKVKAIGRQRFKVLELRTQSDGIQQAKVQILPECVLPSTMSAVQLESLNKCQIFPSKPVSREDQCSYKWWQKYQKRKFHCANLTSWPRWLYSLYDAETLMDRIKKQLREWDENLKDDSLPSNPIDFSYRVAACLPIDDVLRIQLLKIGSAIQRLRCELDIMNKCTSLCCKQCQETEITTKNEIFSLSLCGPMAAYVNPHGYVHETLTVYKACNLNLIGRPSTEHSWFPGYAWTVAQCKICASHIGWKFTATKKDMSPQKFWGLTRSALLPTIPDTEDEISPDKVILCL
Sequence of NEK7 (Q16531 2-1140 partner): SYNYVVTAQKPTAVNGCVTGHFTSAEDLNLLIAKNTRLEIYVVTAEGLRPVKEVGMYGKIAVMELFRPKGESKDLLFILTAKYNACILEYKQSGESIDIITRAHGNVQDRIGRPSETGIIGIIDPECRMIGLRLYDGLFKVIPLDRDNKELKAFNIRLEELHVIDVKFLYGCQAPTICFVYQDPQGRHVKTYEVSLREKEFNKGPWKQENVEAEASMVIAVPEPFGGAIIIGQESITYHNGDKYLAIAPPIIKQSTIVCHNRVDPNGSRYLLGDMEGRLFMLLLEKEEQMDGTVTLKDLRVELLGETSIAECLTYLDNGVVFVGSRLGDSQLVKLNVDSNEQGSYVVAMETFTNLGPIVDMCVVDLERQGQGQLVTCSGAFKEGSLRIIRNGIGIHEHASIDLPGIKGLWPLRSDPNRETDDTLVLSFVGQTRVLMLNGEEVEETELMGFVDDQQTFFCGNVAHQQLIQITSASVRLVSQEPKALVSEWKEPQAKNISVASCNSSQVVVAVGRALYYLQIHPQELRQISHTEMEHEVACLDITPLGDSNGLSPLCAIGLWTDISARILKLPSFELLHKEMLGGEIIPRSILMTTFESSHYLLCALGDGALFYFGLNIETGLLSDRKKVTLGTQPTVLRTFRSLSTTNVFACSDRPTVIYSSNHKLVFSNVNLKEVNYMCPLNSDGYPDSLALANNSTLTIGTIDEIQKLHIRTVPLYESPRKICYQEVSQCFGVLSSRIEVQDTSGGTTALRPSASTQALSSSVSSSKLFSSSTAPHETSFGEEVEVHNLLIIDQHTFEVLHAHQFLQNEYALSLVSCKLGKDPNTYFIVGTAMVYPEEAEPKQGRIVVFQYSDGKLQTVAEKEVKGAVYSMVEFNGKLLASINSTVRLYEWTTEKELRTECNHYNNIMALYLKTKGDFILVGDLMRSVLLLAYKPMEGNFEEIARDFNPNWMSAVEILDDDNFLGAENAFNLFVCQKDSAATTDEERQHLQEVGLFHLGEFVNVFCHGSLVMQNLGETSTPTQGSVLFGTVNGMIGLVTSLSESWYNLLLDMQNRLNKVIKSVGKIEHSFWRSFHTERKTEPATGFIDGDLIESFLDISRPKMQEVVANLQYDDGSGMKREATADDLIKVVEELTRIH
Sequence of CRBN-DDB1 (Q96SW2 whole entry): as the sequence (Q96SW2 whole entry) above
Sequence of CRBN-DDB1 (Q16531 whole entry partner): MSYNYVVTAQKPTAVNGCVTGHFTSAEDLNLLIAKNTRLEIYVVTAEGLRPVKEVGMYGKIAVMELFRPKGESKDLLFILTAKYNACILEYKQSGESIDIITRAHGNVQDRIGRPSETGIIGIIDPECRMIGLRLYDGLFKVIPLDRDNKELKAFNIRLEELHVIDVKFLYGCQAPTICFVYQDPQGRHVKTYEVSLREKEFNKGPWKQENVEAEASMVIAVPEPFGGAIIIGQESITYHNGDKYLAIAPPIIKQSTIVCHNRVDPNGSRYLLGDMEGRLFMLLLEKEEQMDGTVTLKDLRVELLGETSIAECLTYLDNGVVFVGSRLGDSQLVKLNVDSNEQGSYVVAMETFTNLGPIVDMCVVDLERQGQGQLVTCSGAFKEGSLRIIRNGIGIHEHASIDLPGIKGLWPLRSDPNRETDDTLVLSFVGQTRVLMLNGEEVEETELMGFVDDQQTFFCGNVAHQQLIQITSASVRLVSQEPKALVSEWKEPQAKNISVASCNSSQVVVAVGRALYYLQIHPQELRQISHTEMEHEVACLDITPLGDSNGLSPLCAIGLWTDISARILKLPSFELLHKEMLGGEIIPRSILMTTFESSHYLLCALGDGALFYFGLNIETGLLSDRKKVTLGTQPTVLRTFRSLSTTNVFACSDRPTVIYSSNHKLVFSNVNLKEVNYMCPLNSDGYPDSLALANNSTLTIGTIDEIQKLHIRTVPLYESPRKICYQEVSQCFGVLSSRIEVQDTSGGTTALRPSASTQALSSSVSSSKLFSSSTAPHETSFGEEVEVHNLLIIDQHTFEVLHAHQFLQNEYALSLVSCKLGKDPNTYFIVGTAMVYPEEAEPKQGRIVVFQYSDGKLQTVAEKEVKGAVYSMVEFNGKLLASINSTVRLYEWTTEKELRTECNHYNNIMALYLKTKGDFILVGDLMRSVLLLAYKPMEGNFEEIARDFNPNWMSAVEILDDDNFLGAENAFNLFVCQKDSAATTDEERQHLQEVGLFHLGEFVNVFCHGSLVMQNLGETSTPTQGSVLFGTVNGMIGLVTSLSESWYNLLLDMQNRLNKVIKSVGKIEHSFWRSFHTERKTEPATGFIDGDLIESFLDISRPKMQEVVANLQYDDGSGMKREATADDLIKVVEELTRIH

`CC(C)(C(=O)NCc1cc(Cl)c(C2CCC(=O)NC2=O)c(Cl)c1)c1ccc2[nH]ncc2c1` (stereo not drawn) [Compound 70]: the EC50 was 60 nM in assay [1] and not above 100 nM in assay [1] (HTRF class, Cereblon binding). Moreover, the Dmax in assay [2] (read-out: NEK7 NanoBiT Dmax) was 97%; in assay [2] (setting [3]), more than 75%. In addition, the DC50 in assay [2] (read-out: NEK7 NanoBiT DC50) was 0.5 nM; in assay [2] (setting [4]), not above 100 nM.

Turning to `Cc1noc(C(C)(C)C(=O)NCc2cc(Cl)c(C3CCC(=O)NC3=O)c(Cl)c2)n1` (stereo not drawn) [Compound 164], the EC50 in assay [1] is 240 nM; in assay [1] (HTRF class, Cereblon binding), 100 to 1000 nM. Besides, the figures for the greatest degradation seen (Dmax) in assay [2] (read-out: NEK7 NanoBiT Dmax) and in assay [2] (setting [3]) were 68% and 50 to 75%, respectively. In addition, the DC50 in assay [2] (read-out: NEK7 NanoBiT DC50) is 66 nM; in assay [2] (setting [4]), not above 100 nM.

For the molecule `CC(C)(C(=O)NCc1cc(Cl)c(C2CCC(=O)NC2=O)c(Cl)c1)c1ncc(C2COC2)cn1` (stereo not drawn) [Compound 178], the EC50 in assay [1] was 290 nM; in assay [1] (HTRF class, Cereblon binding), 100 to 1000 nM. Moreover, the Dmax in assay [2] (read-out: NEK7 NanoBiT Dmax) was 66%; in assay [2] (setting [3]), 50 to 75%. In addition, the DC50 in assay [2] (read-out: NEK7 NanoBiT DC50) is 95 nM; in assay [2] (setting [4]), not above 100 nM.

Turning to `CC(C)(C(=O)NCc1cc(Cl)c(C2CCC(=O)NC2=O)c(Cl)c1)c1ccc2nnccc2c1` (stereo not drawn) [Compound 41], the EC50 in assay [1] is 60 nM; in assay [1] (HTRF class, Cereblon binding), not above 100 nM. Further, the Dmax in assay [2] (read-out: NEK7 NanoBiT Dmax) is 98%; in assay [2] (setting [3]) it was more than 75%. Also, the values for the DC50 in assay [2] (read-out: NEK7 NanoBiT DC50) and in assay [2] (setting [4]) were 0.4 nM and not above 100 nM, respectively.

For the molecule `CC(C)(C(=O)NCc1cc(Cl)c(C2CCC(=O)NC2=O)c(Cl)c1)c1ccsc1` (stereo not drawn) [Compound 126, N-(3,5-dichloro-4-(2,6-dioxopiperidin-3-yl)benzyl)-2-methyl-2-(thiophen-3-yl)propanamide], the EC50 in assay [1] was 50 nM; in assay [1] (HTRF class, Cereblon binding), not above 100 nM. Also, the Dmax was 94% in assay [2] (read-out: NEK7 NanoBiT Dmax) and more than 75% in assay [2] (setting [3]). Also, the results for the DC50 in assay [2] (read-out: NEK7 NanoBiT DC50) and in assay [2] (setting [4]) were 3 nM and not above 100 nM, respectively.

On to `Cc1nccc(C(C)(C)C(=O)NCc2cc(Cl)c(C3CCC(=O)NC3=O)c(Cl)c2)n1` (stereo not drawn) [Compound 150], for which the EC50 is 150 nM in assay [1] and 100 to 1000 nM in assay [1] (HTRF class, Cereblon binding). In addition, the Dmax in assay [2] (read-out: NEK7 NanoBiT Dmax) is 53%; in assay [2] (setting [3]), 50 to 75%. Moreover, the DC50 was 91 nM in assay [2] (read-out: NEK7 NanoBiT DC50) and not above 100 nM in assay [2] (setting [4]).

As to `CC(C)(C(=O)NCc1cc(Cl)c(C2CCC(=O)NC2=O)c(Cl)c1)c1nc(C2CC2)no1` (stereo not drawn) [Compound 218], the EC50 in assay [1] is 80 nM; in assay [1] (HTRF class, Cereblon binding) it was not above 100 nM. The results for the Dmax in assay [2] (read-out: NEK7 NanoBiT Dmax) and in assay [2] (setting [3]) were 71% and 50 to 75%, respectively. The figures for the DC50 in assay [2] (read-out: NEK7 NanoBiT DC50) and in assay [2] (setting [4]) were 49 nM and not above 100 nM, respectively.

For `CC(C)(C(=O)NCc1cc(Cl)c(C2CCC(=O)NC2=O)c(Cl)c1)c1cc(C#N)ccn1` (stereo not drawn) [Compound 157], the EC50 in assay [1] is 190 nM; in assay [1] (HTRF class, Cereblon binding) it was 100 to 1000 nM. The Dmax in assay [2] (read-out: NEK7 NanoBiT Dmax) is 60%; in assay [2] (setting [3]), 50 to 75%. Also, the DC50 in assay [2] (read-out: NEK7 NanoBiT DC50) was 178 nM; in assay [2] (setting [4]) it was 100 to 1000 nM.

As to `CC(C)(C(=O)NCc1cc(Cl)c(C2CCC(=O)NC2=O)c(Cl)c1)c1ncc(OC(F)F)cn1` (stereo not drawn) [Compound 188], the concentration for a half-maximal effect (EC50) in assay [1] is 80 nM; in assay [1] (HTRF class, Cereblon binding), not above 100 nM. For the same molecule, the Dmax in assay [2] (read-out: NEK7 NanoBiT Dmax) was 93%; in assay [2] (setting [3]), more than 75%. For the same molecule, the DC50 in assay [2] (read-out: NEK7 NanoBiT DC50) was 4 nM; in assay [2] (setting [4]), not above 100 nM.

Consider `Cc1ccc(C(C)(C)C(=O)NCc2cc(Cl)c(C3CCC(=O)NC3=O)c(Cl)c2)cn1` (stereo not drawn) [Compound 205], for which the EC50 was 110 nM in assay [1] and 100 to 1000 nM in assay [1] (HTRF class, Cereblon binding). Further, the Dmax in assay [2] (read-out: NEK7 NanoBiT Dmax) is 97%; in assay [2] (setting [3]), more than 75%. Also, the figures for the DC50 in assay [2] (read-out: NEK7 NanoBiT DC50) and in assay [2] (setting [4]) were 1 nM and not above 100 nM, respectively.

Regarding `CC(C)(C(=O)NCc1cc(Cl)c(C2CCC(=O)NC2=O)c(Cl)c1)c1ncc(F)cn1` (stereo not drawn) [Compound 11], the EC50 in assay [1] is 190 nM; in assay [1] (HTRF class, Cereblon binding) it was 100 to 1000 nM. Besides, the Dmax in assay [2] (read-out: NEK7 NanoBiT Dmax) was 90%; in assay [2] (setting [3]) it was more than 75%. Further, the results for the DC50 in assay [2] (read-out: NEK7 NanoBiT DC50) and in assay [2] (setting [4]) were 9 nM and not above 100 nM, respectively.

On to `CC(C)(C(=O)NCc1cc(Cl)c(C2CCC(=O)NC2=O)c(Cl)c1)c1ccc2ncsc2c1` (stereo not drawn) [Compound 74], for which the half-maximal effective concentration (EC50) was 30 nM in assay [1] and not above 100 nM in assay [1] (HTRF class, Cereblon binding). Also, the Dmax in assay [2] (read-out: NEK7 NanoBiT Dmax) is 97%; in assay [2] (setting [3]) it was more than 75%. Also, the DC50 was 1 nM in assay [2] (read-out: NEK7 NanoBiT DC50) and not above 100 nM in assay [2] (setting [4]).

With `CC(C)(C(=O)NCc1cc(Cl)c(C2CCC(=O)NC2=O)c(Cl)c1)c1ncc(C(=O)O)cn1` (stereo not drawn) [Compound 235, 2-(1-((3,5-dichloro-4-(2,6-dioxopiperidin-3-yl)benzyl)amino)-2-methyl-1-oxopropan-2-yl)pyrimidine-5-carboxylic acid], the EC50 in assay [1] was 560 nM; in assay [1] (HTRF class, Cereblon binding), 100 to 1000 nM. In addition, the Dmax in assay [2] (read-out: NEK7 NanoBiT Dmax) was 11%; in assay [2] (setting [3]), not above 50%. Also, the DC50 in assay [2] (read-out: NEK7 NanoBiT DC50) is 1000 nM; in assay [2] (setting [4]), more than 1000 nM.

On to `Cc1cc(C(C)(C)C(=O)NCc2cc(Cl)c(C3CCC(=O)NC3=O)c(Cl)c2)no1` (stereo not drawn) [Compound 145], for which the EC50 in assay [1] is 430 nM; in assay [1] (HTRF class, Cereblon binding), 100 to 1000 nM. Further, the values for the Dmax in assay [2] (read-out: NEK7 NanoBiT Dmax) and in assay [2] (setting [3]) were 86% and more than 75%, respectively. The DC50 was 10 nM in assay [2] (read-out: NEK7 NanoBiT DC50) and not above 100 nM in assay [2] (setting [4]).

As to `CC(C)(C(=O)NCc1cc(Cl)c(C2CCC(=O)NC2=O)c(Cl)c1)c1ccc(S(C)(=O)=O)cc1` (stereo not drawn) [Compound 66], the EC50 in assay [1] is 90 nM; in assay [1] (HTRF class, Cereblon binding), not above 100 nM. Moreover, the Dmax is 96% in assay [2] (read-out: NEK7 NanoBiT Dmax) and more than 75% in assay [2] (setting [3]). Also, the figures for the DC50 in assay [2] (read-out: NEK7 NanoBiT DC50) and in assay [2] (setting [4]) were 3 nM and not above 100 nM, respectively.

On to `COc1conc1C(C)(C)C(=O)NCc1cc(Cl)c(C2CCC(=O)NC2=O)c(Cl)c1` (stereo not drawn) [Compound 227, N-(3,5-dichloro-4-(2,6-dioxopiperidin-3-yl)benzyl)-2-(4-methoxyisoxazol-3-yl)-2-methylpropanamide], for which the EC50 in assay [1] was 110 nM; in assay [1] (HTRF class, Cereblon binding), 100 to 1000 nM. In addition, the figures for the Dmax in assay [2] (read-out: NEK7 NanoBiT Dmax) and in assay [2] (setting [3]) were 92% and more than 75%, respectively. For the same molecule, the DC50 is 6 nM in assay [2] (read-out: NEK7 NanoBiT DC50) and not above 100 nM in assay [2] (setting [4]).

As for `CC(C)(C(=O)NCc1cc(Cl)c(C2CCC(=O)NC2=O)c(Cl)c1)c1ccn2nccc2c1` (stereo not drawn) [Compound 82], the EC50 in assay [1] is 90 nM; in assay [1] (HTRF class, Cereblon binding), not above 100 nM. The Dmax was 96% in assay [2] (read-out: NEK7 NanoBiT Dmax) and more than 75% in assay [2] (setting [3]). Moreover, the DC50 in assay [2] (read-out: NEK7 NanoBiT DC50) was 1 nM; in assay [2] (setting [4]) it was not above 100 nM.

Consider `Cn1ncc2ccc(C3(C(=O)NCc4cc(Cl)c(C5CCC(=O)NC5=O)c(Cl)c4)CC(=O)C3)cc21` (stereo not drawn) [Compound 134, N-(3,5-dichloro-4-(2,6-dioxopiperidin-3-yl)benzyl)-1-(1-methyl-1H-indazol-6-yl)-3-oxocyclobutane-1-carboxamide], for which the EC50 is 70 nM in assay [1] and not above 100 nM in assay [1] (HTRF class, Cereblon binding). In addition, the values for the Dmax in assay [2] (read-out: NEK7 NanoBiT Dmax) and in assay [2] (setting [3]) were 93% and more than 75%, respectively. For the same molecule, the DC50 in assay [2] (read-out: NEK7 NanoBiT DC50) was 2 nM; in assay [2] (setting [4]), not above 100 nM.

As for `CC(C)(C(=O)NCc1cc(Cl)c(C2CCC(=O)NC2=O)c(Cl)c1)c1cccc(S(C)(=O)=O)c1` (stereo not drawn) [Compound 62], the EC50 is 50 nM in assay [1] and not above 100 nM in assay [1] (HTRF class, Cereblon binding). Further, the maximal degradation (Dmax) was 96% in assay [2] (read-out: NEK7 NanoBiT Dmax) and more than 75% in assay [2] (setting [3]). Further, the DC50 in assay [2] (read-out: NEK7 NanoBiT DC50) is 2 nM; in assay [2] (setting [4]), not above 100 nM.

With `Cn1cncc1C(C)(C)C(=O)NCc1cc(Cl)c(C2CCC(=O)NC2=O)c(Cl)c1` (stereo not drawn) [Compound 123], the EC50 in assay [1] was 610 nM; in assay [1] (HTRF class, Cereblon binding) it was 100 to 1000 nM. In addition, the Dmax is 70% in assay [2] (read-out: NEK7 NanoBiT Dmax) and 50 to 75% in assay [2] (setting [3]). Further, the DC50 in assay [2] (read-out: NEK7 NanoBiT DC50) is 100 nM; in assay [2] (setting [4]), 100 to 1000 nM.

For orientation: EC50 means the concentration needed to bring the measured effect to its halfway point. Lower therefore signals a more potent agent. The term Dmax denotes the largest share of the target that was removed. One may read the DC50 as the concentration giving 50% degradation.
